Experimental findings from patent US9139585B2 (Merck Sharp & Dohme Corp., priority 2011, dated 2015) are described below.

pIC50: −log10 of the molar value. Read-outs that look alike come from different tables or passages of the source.

One assay has as its target Kir1.1 (ROMK1) (Homo sapiens (Human), UniProt P48048). As to the kind of experiment: Electrophysiology Assay (whole cell voltage clamp, IonWorks Quattro). It counts as cell-based. An excerpt: Several assays may be used to measure functional inhibition of the ROMK channel by compounds of the instant invention. One assay that can be used is an electrophysiology assay that measures the electrical current that is generated as potassium permeates through the channel.
Block of Kir1.1 (ROMK1) currents was examined by whole cell voltage clamp (Hamill et. al. Pfluegers Archives 391:85-100 (1981)) using the IonWorks® Quattro automated electrophysiology platform (Molecular Devices, Sunnyvale, Calif.). Chinese hamster ovary cells stably expressing Kir1.1 channels were maintained in T-75 flasks in cell culture media in a humidified 10% CO2 incubator at 37° C. Prior to an experiment, Kir1.1 expression was induced by overnight incubation with 1 mM sodium butyrate. On the day of the experiment, cells were dissociated with 2.5 ml of Versene™ (Invitrogen 15040-066) for approximately 6 minutes at 37° C. and suspended in 10 ml of bath solution containing (in mM): 150 NaCl, 10 KCl, 2.7 CaCl2, 0.5 MgCl2, 5 HEPES, pH 7.4. After centrifugation, the cell pellet was resuspended in approximately 4.0 ml of bath solution and placed in the IonWorks® instrument. The intracellular solution consisted of (in mM): 80 K gluconate, 40 KCl, 20 KF, 3.2 MgCl2, 3 EGTA, 5 Hepes, pH 7.4. Electrical access to the cytoplasm was achieved by perforation in 0.13 mg/ml amphotericin B for 4 minutes. Amphotericin B (Sigma A-4888) was prepared as a 40 mg/ml solution in DMSO.
Voltage protocols and current recordings were performed using the IonWorks® HT software/hardware system. Currents were sampled at 1 kHz. No correction for liquid junction potentials was used. The test pulse, consisting of a 100 ms step to 0 mV from a holding potential of −70 mV, followed by a 100 ms voltage ramp from −70 mV to +70 mV, was applied before and after a 6 minutes compound incubation period. Test compounds were prepared by diluting DMSO stock solutions into the bath solution at 3× the final concentration and placed in the instrument in 96-well polypropylene plates. Current amplitudes were measured using the IonWorks® software. To assess compound potency, the fractional block during the voltage step to 0 mV was calculated in Microsoft® Excel (Microsoft, Redmond, Calif.), and dose-response curves were fitted with Igor Pro 4.0 (WaveMetrics, Lake Oswego, Oreg.).

The target in the next assay is hROMK (hKir1.1) (Homo sapiens (Human), UniProt P48048). As to the kind of experiment: Thallium Flux Assay (ROMK channel functional thallium flux, FLIPR-Tetra). It counts as cell-based. The protocol:
Another ROMK functional assay makes use of the ability of thallium to permeate through open ROMK channels and increase the fluorescence of a dye previously loaded into the cells. Under control conditions, cells loaded with dye and exposed to thallium-containing medium display a time-dependent increase in fluorescence, the rate of which depends on number of functional channels. When cells are incubated in the presence of a channel inhibitor, the increase in fluorescence is attenuated in a concentration-dependent manner, and IC50 values of inhibition by compounds can be accurately determined. This assay has been established with cell lines expressing either human, or rat ROMK channels, and operates in 384-well format.
HEK293 cells stably expressing hROMK (hKir1.1) were grown at 37° C. in a 10% CO2 humidified incubator in complete growth media: Dulbecco's Modified Eagle Medium supplemented with non-essential amino acids, Penicillin/Streptomycin/Glutamine, G418 and FBS. At >80% confluency, the media was aspirated from the flask and the sample was rinsed with 10 ml Calcium/Magnesium-free PBS. […] To dislodge the cell, the side of the flask was gently banged with a hand. The cells were triturated completely and then transferred to 25 ml complete media. The sample was then centrifuged at 1,500 rpm for 6 minutes, followed by resuspension in complete growth media and then cell concentration was determined. […] Under ideal growth conditions and appropriate tissue culture practices, this cell line is stable for 40-45 passages.
FluxOR Kit Components (Invitrogen F10017)
• FluxOR™ Reagent (Component A) • FluxOR™ Assay Buffer (Component B)—10× Concentrate • PowerLoad™ Concentrate (Component C)—100× Concentrate • Probenecid (Component D)—Lyophilized sample is kept at −20° C. Water soluble, 100× after solubilization in 1 ml water. […] Store at 4° C. • Thallium sulfate (Tl2SO4) Concentrate (Component G)—50 mM in water. Store at 4° C. • DMSO (dimethyl sulfoxide, Component H)—1 ml (100%) Reagent Preparation— FluxOR Working Solutions • 1000× FluxOR™ Reagent: Reconstitute a vial of component A in 100 μl DMSO; Mix well; Store 10 μl aliquots at −20° C. • 1× FluxOR™ Assay Buffer: Dilute Component B 10-fold with water; Adjust pH to 7.4 with Hepes/NaOH; Filter and store at 4° C. • Probenecid/Assay Buffer: 100 ml of 1× FluxOR™ Assay Buffer; 1 ml of reconstituted component D; Store at 4° C. • Loading Buffer (per microplate): 10 μl 1000× FluxOR™ Reagent; 100 μl component C; 10 ml Probenecid/Assay Buffer • Compound Buffer (per microplate): 20 ml Probenecid/Assay Buffer; 0.3 mM ouabain (10 mM ouabain in water can be stored in amber bottle/aluminum foil at room temperature);
Test compound • 1× FluxOR™ Chloride-Free Buffer: Prepare 1× working solution in water. Can be stored at room temperature • Stimulant Buffer (prepared at 5× final concentration in 1× FluxOR™ Chloride-Free Buffer): 7.5 mM Thallium sulfate and 0.75 mM Potassium sulfate (to give a final assay concentration of 3 mM Thallium/0.3 mM Potassium). Store at 4° C. when not in use. If kept sterile, this solution is good for months. Assay Protocol—
The ROMK channel functional thallium flux assay is performed in 384 wells, using the FLIPR-Tetra instrument. HEK-hKir1.1 cells are seeded in Poly-D-Lysine microplates and kept in a 37° C.-10% CO2 incubator overnight. On the day of the experiment, the growth media is replaced with the FluxOR™ reagent loading buffer and incubated, protected from light, at ambient temperature (23-25° C.) for 90 min. The loading buffer is replaced with assay buffer±test compound followed by 30 min incubation at ambient temperature, where the Thallium/Potassium stimulant is added to the microplate.
• 1. Seed HEK-hKir1.1 cells (50 μl at 20,000 cells/well) in 384-well PDL coated Microplates • 2. Allow cells to adhere overnight in humidified 37° C./10% CO2 incubator • 3. Completely remove cell growth media from microplate and replace with 25 μl loading buffer • 4.

Setting [1] is: Chinese hamster ovary cells stably expressing Kir1.1, block during voltage step to 0 mV, read-out: EP Assay IC50.
The mark [2] stands for this setting: HEK293 cells stably expressing hROMK (hKir1.1), read-out: Thallium Flux Assay IC50.
The mark [3] stands for this setting: read-out: Thallium Flux Assay IC50.

Kir1.1 (ROMK1), sequence (P48048 whole entry, species assumed): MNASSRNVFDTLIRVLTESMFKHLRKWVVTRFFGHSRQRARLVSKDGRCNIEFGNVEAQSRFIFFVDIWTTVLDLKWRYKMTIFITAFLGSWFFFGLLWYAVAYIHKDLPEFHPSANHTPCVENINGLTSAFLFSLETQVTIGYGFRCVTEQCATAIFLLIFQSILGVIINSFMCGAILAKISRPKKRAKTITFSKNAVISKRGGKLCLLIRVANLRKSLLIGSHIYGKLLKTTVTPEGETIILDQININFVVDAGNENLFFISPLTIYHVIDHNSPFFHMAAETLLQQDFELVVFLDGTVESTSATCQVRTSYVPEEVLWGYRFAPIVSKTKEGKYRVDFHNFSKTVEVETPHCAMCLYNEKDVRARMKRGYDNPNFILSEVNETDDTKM
hROMK (hKir1.1), sequence (P48048 whole entry): as the sequence (P48048 whole entry, species assumed) above

`Cc1c([C@@H](O)CN2C3CCC2C2CCC3N2CC(O)c2ccc(C#N)cn2)ccc2c1COC2=O` (single isomer, unassigned) [Example 5]: the negative-log IC50 (pIC50) is 6.71 on Kir1.1 (ROMK1) (setting [1]) and 6.42 on hROMK (hKir1.1) (setting [2]). In the same order, the values of `COc1cc(C(O)CN2C3CCC2C2CCC3N2C[C@H](O)c2ccc3c(c2C)COC3=O)ncc1C#N` (single isomer, unassigned) [Example 6] are 7.68 and 7.59. In the case of `Cc1c([C@@H](O)CN2C3CCC2C2CCC3N2CC(O)c2ccc(C#N)cn2)ccc2c1COC2=O` (single isomer, unassigned) [Example 8], the negative-log IC50 (pIC50) on hROMK (hKir1.1) (setting [2]) is 6.04. On to `COc1cc(C(O)CN2C3CCC2C2CCC3N2C[C@H](O)c2ccc3c(c2C)COC3=O)ncc1C#N` (single isomer, unassigned) [Example 9], for which the pIC50 on Kir1.1 (ROMK1) (setting [1]) and at hROMK (hKir1.1) (setting [2]) was 7.64 each time. Take `Cc1c([C@@H](O)CN2CC3CCC2CN3S(=O)(=O)c2ccc(-n3cnnn3)cc2)ccc2c1COC2=O` (single isomer, unassigned) [Example 17A]: the results for the pIC50 at Kir1.1 (ROMK1) (setting [1]) and at hROMK (hKir1.1) (setting [2]) were 6.77 and 6.29, respectively. In the case of `Cc1c([C@@H](O)CN2CC3CCC2CN3S(=O)(=O)c2ccc(-n3cnnn3)cc2)ccc2c1COC2=O` (single isomer, unassigned) [Example 17B], the negative logarithm of the IC50 (pIC50) on hROMK (hKir1.1) (setting [2]) is 6.00. `Cc1c([C@@H](O)CN2C3COCC2CN(CC(O)c2ccc4c(c2)C[C@H](C)OC4=O)C3)ccc2c1COC2=O` (single isomer, unassigned) [Example 23A]: the negative logarithm of the IC50 (pIC50) on Kir1.1 (ROMK1) (setting [1]) was 5.61; against hROMK (hKir1.1) (Thallium Flux Assay IC50), 6.34. For `Cc1c([C@@H](O)CN2C3COCC2CN(CC(O)c2ccc4c(c2)C[C@H](C)OC4=O)C3)ccc2c1COC2=O` (single isomer, unassigned) [Example 23B], the results for the negative logarithm of the IC50 (pIC50) against Kir1.1 (ROMK1) and at hROMK (hKir1.1) (Thallium Flux Assay IC50) were 7.19 and 7.39, respectively. The compound `Cc1c([C@@H](O)CN2C3COCC2CN(CC(O)c2ccc4c(c2)C[C@@H](C)OC4=O)C3)ccc2c1COC2=O` (single isomer, unassigned) [Example 24A] gave a pIC50 against hROMK (hKir1.1) (Thallium Flux Assay IC50) of 5.69. As to `Cc1c([C@@H](O)CN2C3COCC2CN(CC(O)c2ccc4c(c2)C[C@@H](C)OC4=O)C3)ccc2c1COC2=O` (single isomer, unassigned) [Example 24B], the negative logarithm of the IC50 (pIC50) is 7.18 on Kir1.1 (ROMK1) and 7.44 on hROMK (hKir1.1) (Thallium Flux Assay IC50). Consider `Cc1c([C@@H](O)CN2CCN(CC(O)c3ccc(-n4cnnn4)nc3)CC2)ccc2c1COC2=O` (single isomer, unassigned) [Example 34A], for which the pIC50 on Kir1.1 (ROMK1) (read-out: EP Assay IC50) was 7.46; on hROMK (hKir1.1) (setting [3]), 6.53. The corresponding values for `Cc1c([C@@H](O)CN2CCN(CC(O)c3ccc(-n4cnnn4)nc3)CC2)ccc2c1COC2=O` (single isomer, unassigned) [Example 34B] are 7.85 and 6.83.

As to `Cc1c([C@@H](O)CN2CCN(C[C@@H](O)c3ccc4c(c3)CCS4(=O)=O)CC2)ccc2c1COC2=O` (single isomer, unassigned) [Example 43B], on hROMK (hKir1.1) (setting [2]), the pIC50 is 7.28.

The compound `Cc1c([C@@H](O)CN2CCN(C[C@H](O)c3ccc4c(c3C)COC4=O)C3(CC3)C2)ccc2c1COC2=O` [Example 4, 5,5′-(1R,1′R)-2,2′-(4,7-Diazaspiro[2.5]octane-4,7-diyl)bis(1-hydroxyethane-2,1-diyl)bis(4-methylisobenzofuran-1(3H)-one)] had a pIC50 against hROMK (hKir1.1) (Thallium Flux Assay IC50) of 6.20. For `Cc1c([C@@H](O)CN2C3COCC2CN(CC(O)c2ccc(C#N)cn2)C3)ccc2c1COC2=O` (stereo partly drawn) [Example 19, 6-(1-Hydroxy-2-(9-((R)-2-hydroxy-2-(4-methyl-1-oxo-1,3-dihydroisobenzofuran-5-yl)ethyl)-3-oxa-7,9-diazabicyclo[3.3.1]nonan-7-yl)ethyl)nicotinonitrile], the negative-log IC50 (pIC50) at hROMK (hKir1.1) (setting [2]) is 5.79. Still for that read-out and setting: next, `Cc1c([C@@H](O)CN2CCCCN(C[C@H](O)c3ccc4c(c3C)COC4=O)CC2)ccc2c1COC2=O` [Example 27, 5,5′-(1R,1′R)-2,2′-(1,4-Diazocane-1,4-diyl)bis(1-hydroxyethane-2,1-diyl)bis(4-methylisobenzofuran-1(3H)-one)]: 6.16.
